This is an account of results in US20090158465A1, “TRANSGENIC PLANTS WITH ENHANCED DROUGHT-RESISTANCE AND METHOD FOR PRODUCING THE PLANTS” (priority 2006, published 2009).

In test [1] the test system is stomata (guard cells) of abo1-1 and wild-type plants. Put plainly: Stomatal aperture (closing) bioassay with ABA. It is filed as cell-based, Arabidopsis thaliana. Here is the method:
Stomatal closing assays were conducted as described previously (Pei, Z. M. et al., Plant Cell 9:409-42 (1997)). Rosette leaves were floated in solutions containing 50 μM CaCl2, 10 mM KCl, 10 mM MES [2-(N-morpholino)ethanesulfonic acid]-Tris, pH 6.15, and exposed to light (150 μmol m-2 s-1) for 2 h. […] After ABA treatment for 2 h, stomatal apertures were measured as described previously (Pei, Z. M. et al., Plant Cell 9:409-42 (1997)). Values are means ±standard errors (SE) (n=30). Significance (P<0.05) was assessed by Student's t test.
In order to determine the cause of the drought-resistant phenotype of the abo1-1 mutant, we performed experiments to determine whether this phenotype is related to increased sensitivity of stomatal closure to ABA. abo1-1 and wild-type plants were exposed to high humidity for 12 h to open stomata fully. […]

In test [2] the test system is abo1-1 and wild-type seedlings. As to the kind of experiment: Seedling growth on MS medium containing ABA. To be noted: abo1-1 versus wild type; 5-day-old seedlings transferred to different concentrations of ABA, scored one week later. It counts as in vivo, Arabidopsis thaliana. Here is the method:
Plants were grown in 340-ml pots filled with a mixture of peat/forest soil and vermiculite (3:1) in a greenhouse at 22° C., with light intensity of 50 μmol m-2 s-1 and 70% rH under long-day conditions (16-h-light/8-h-dark cycle). Seedlings were germinated and grown on Murashige and Skoog (MS) medium (M5519; Sigma) supplemented with 3% (wt/vol) sucrose and 0.8% agar under the same growth conditions.
We also analyzed the ABA sensitivities of abo1-plants in seed germination and seedling growth. Seedlings grown for 5 days on MS medium were transferred to MS media containing different concentrations of ABA. One week later, the plants were scored for visible changes. Without ABA, the root growth of abo1-1 plants was slower than that of wild-type plants but they had similar levels of shoot growth. […] The postgermination growth of abo1-1 seedlings was more impaired than that of the wild type, as indicated by the ratio of seedlings with green cotyledons to the total number of seedlings after germination for 1 week (FIG. 3D).

Test [3] relates to abo1-1 and wild-type leaves. As to the kind of experiment: Oxidative stress: leaves from soil-grown plants treated with MV or H2O2 (damage, ion leakage). Also on record: species or system Arabidopsis thaliana. Here is the method:
(§1) The leaves taken from plants grown in soil were treated with 1 μM MV. […] Electrolyte leakage (conductivity) is often used as an indicator of tissue damage. […] Rose Bengal is another reagent that generates H2O2 when exposed to the light. […] This was supported by ion leakage measurements at different time points (FIG. 4H).

The test system of test [4] is abo1-1 and wild-type seedlings. Put plainly: Oxidative stress: seedlings on MS medium supplemented with MV. It counts as in vivo, Arabidopsis thaliana. The source says: ABA can induce the expression of genes encoding antioxidant enzymes (Guan, L. et al., Plant Physiol. 117:217-224 (1998); Zhu, D. et al., Plant Physiol. 106:173-178 (1994)). ABA also induces the production of reactive oxygen species that serve as a second messenger in ABA signaling in guard cells (Jiang, M. et al., Plant Cell Physiol. 42:1265-127 (2001); Pei, Z. M. et al., Nature 406:731-73 (2000)). In order to test whether the ABA sensitivity of abo1-1 seedlings might be connected with reactive oxygen species, we analyzed the response of abo1-1 mutant plants to oxidative stress. Methyl viologen (MV) (paraquat) inhibits electron transport in the reduction of NADP to NADPH during photosynthesis and thus enhances H2O2 production in chloroplasts under light (Suntres, Z. E. Toxicology 180:65-7 (2002)). Seedlings grown on MS medium for 5 days were transferred to new MS medium supplemented with different concentrations of MV. The abo1-1 seedlings grew well on MS medium supplemented with 3 μM MV, while more than 50% of wild-type seedlings were killed at this concentration (FIG. 4A) after a 5-day treatment. […] Seed germination was inhibited to similar extents for both abo1-1 and wild-type plants by various concentrations of MV. After radicles emerged, the young seedlings were more sensitive to MV.

Test [5] deals with abo1 mutant and wild-type seedlings. Put plainly: Oxidative stress: seedlings exposed to Rose Bengal. To be noted: 10 μM Rose Bengal for 3 days. It is filed as in vivo, Arabidopsis thaliana. Here is the method:
as §1

Turning to `CC1=CC(=O)CC(C)(C)[C@@]1(O)/C=C/C(C)=C\C(=O)O` [ABA, abscisic acid], the stomatal closure result in test [1] (abo1-1 plants, 1 μM ABA for 2 h) was “almost completely closed”; in test [1] (wild-type plants, 20 μM ABA, same treatment time (2 h), data not shown), “did not completely close”. The “ABA concentration enhancing stomatal closure in abo1-1 to the same degree as 10 μM ABA in the wild type” value in test [1] (abo1-1 plants, preopened stomata, FIG. 2B) was found to be 0.5 µM. In test [2], the “root and shoot growth” value is “more inhibited than that of the wild type”.
Regarding `OO` [H2O2], in test [3] (wild-type leaves versus abo1-1 leaves, 10 mM H2O2 for 5 days), the leaf damage entry was “more damaged than abo1-1 leaves”.
For `C[n+]1ccc(-c2cc[n+](C)cc2)cc1` [MV, Methyl viologen], the “cotyledons affected (greening prevented)” value in test [4] (abo1-1, 1.2 μM MV for 10 days) came out at 40%. In addition, in test [4] (abo1-1 seedlings, 3 μM MV, 5-day treatment), the seedling growth result was “grew well”. In addition, the seedling survival entry in test [4] (abo1 mutant seedlings, 6 μM MV) is listed as “still survived”; in test [4] (wild-type seedlings, 4 μM MV), “completely killed all”. In addition, in test [4] (wild-type seedlings, 1.2 μM MV for 10 days), the “seedlings with cotyledon greening prevented” value is “more than 90%”. For the same compound, the seedlings killed result in test [4] (wild-type seedlings, 3 μM MV, 5-day treatment) was “more than 50%”. The “ion leakage (electrolyte leakage, conductivity)” value in test [3] (abo1-1 leaves versus wild type, 1 μM MV) is “substantially less ion leakage than the wild-type leaves”. For the same compound, the leaf damage entry in test [3] (abo1-1 leaves, 1 μM MV, after 5 days) is “enhanced anthocyanin pigmentation but without any apparent chlorotic symptom”; in test [3] (wild-type leaves, 1 μM MV, after 5 days), “severely damaged and displayed chlorotic spots or bleaching”.
Take `O=C([O-])c1c(Cl)c(Cl)c(Cl)c(Cl)c1-c1c2cc(I)c(=O)c(I)c-2oc2c(I)c([O-])c(I)cc12.[Na+].[Na+]` [Rose Bengal]: the cotyledon damage result was “no chlorotic symptom observed” in test [5] (abo1 mutant) and “severely damaged the cotyledons” in test [5] (wild-type seedlings).
